Test results published in article PMC9246773, “Assessing the Activity of Antimicrobial Peptides Against Common Marine Bacteria Located in Rotifer (Brachionus plicatilis) Cultures” (Probiotics and Antimicrobial Proteins, 2022).
No end group written: not given here.

Key:
[1] = test system: Shewanella sp.; type: cell-based; conditions: 48 h
Experimental: (§1) A range of bacterial species with the potential to be transferred to developing fish larvae as pathogens or probiotics were selected for use in the study (Table 2). Bacterial isolates were stored at −80 °C and thawed, and 25 µL of the isolates was spread onto marine salt agar (MSA) media. All isolates were incubated at 25 °C for 18 h to reach mid-log growth phase. All isolates were sub-cultured and identified using mass spectrometry (MALDI-TOF) using the BioTyper and MBT 8468 library (Bruker Pty Ltd). The isolate Tenacibaculum discolor was plated on Anacker and Oradal’s marine (AOM) media, incubated for 48 h and identified using the aforementioned method. Bacterial isolates were suspended in sterile saline (0.75% NaCl w/v) to 0.5 McFarland standard. […] The bacterial isolates T. discolor and Pseudoalteromonas sp. require marine salts to grow and were not added to MHB (0‰). The isolate T. discolor requires low nutrients to grow, therefore, a separate MHB (25‰) was prepared at a diluted ratio of 1 part MHB and 7 parts artificial seawater (25‰).
(§2) The protocol was followed to determine the minimum inhibitory concentration (MIC) of the selected peptides. Two MIC assays were performed, firstly to determine whether each peptide precipitated in MHB and thereby required acetic acid adjustments (supplementary materials) and secondly, to determine the antimicrobial activity of each peptide in artificial seawater (25‰). Peptide stock solutions (1.3 mg mL^−1) were made by diluting the peptides in sterile deionised water. MHB was made with deionised water to reach a concentration of approaching 0‰ and artificial sea salts (Sigma-Aldrich® S9883) to reach a salinity of 25‰.
(§3) A broth microdilution protocol was followed to test whether the AMPs precipitated in MHB. The isolates T. discolor and Pseudoalteromonas were excluded from this assay because they required marine salts for growth. The peptides HHC10 and HHC36 previously required acetic acid adjustments according to [63] and were not trialled in this assay. To test if peptides required acetic acid, each peptide was diluted 1:2 in acetic acid (0.02% acetic acid w/v, containing 0.4% BSA) solution. In a 96-well polypropylene microtitre plates (Costar® 3879), 100 µL of this peptide stock was added to the first well for each bacterial isolate tested and serially diluted 2-fold with acetic acid (0.01% acetic acid w/v, containing 0.2% BSA). From each well, 10 µL of each peptide concentration was added to the corresponding wells of a new 96-well microtitre plate. From each of the bacterial suspensions in MHB (0‰), 90 µL was added to each well. […] From each of the bacterial suspensions in MHB (0‰), 50 µL was added to each well. All peptide concentrations ranged from 0.125 - 65µg mL^-1 and the bacterial suspension in each well was approximately 5 × 10^5 CFU mL^-1. Antimicrobial peptides that have an MIC value two or more dilutions higher in the assay with no acetic acid, compared to the assay with acetic acid, require acetic acid adjustments. The 96-well plates were incubated at 25 °C and read at 24 and 48 hours. The MIC was visually determined using a Sensititre™ Vizion™ Digital MIC Viewing System (Thermo Scientific™), and the lowest AMP concentration that had no bacterial growth was recorded as the MIC after 48 hours. Each bacterium was trialled in duplicate.

[2] = test system: Vibrio alginolyticus; type: cell-based; conditions: 48 h
Experimental: as §1, §2, §3

[3] = test system: Escherichia coli (ATCC 25922); type: cell-based; conditions: ATCC 25922, 48 h
Experimental: as §1, §2, §3

[4] = test system: Vibrio rotiferianus; type: cell-based; conditions: 48 h
Experimental: as §1, §2, §3

[5] = test system: Vibrio scophthalmi; type: cell-based; conditions: 48 h
Experimental: as §1, §2, §3

[6] = test system: Vibrio harveyi; type: cell-based; conditions: 48 h
Experimental: as §1, §2, §3

[7] = test system: Vibrio harveyi (ATCC 35084); type: cell-based; conditions: ATCC 35084, 48 h
Experimental: as §1, §2, §3

[8] = test system: bacterial isolates; type: cell-based; conditions: 18 h
Experimental: as §1, §2
Once the acetic acid requirement for each peptide was determined (Table 3), the antimicrobial activity of each peptide was tested at a salinity of 0‰ and 25‰ for all bacterial isolates. A stock solution for peptides that required acetic acid was prepared by a 1:2 dilution in acetic acid (0.02% acetic acid w/v, containing 0.4% BSA) solution. In a 96-well polypropylene microtitre plates (Costar® 3879), 100 µL of this peptide stock was added to the first well for each bacterial isolate tested and serially diluted twofold with acetic acid (0.01% acetic acid w/v, containing 0.2% BSA). From each well, 10 µL of each peptide concentration was added to the corresponding wells of a new 96-well microtitre plate. From each of the bacterial suspensions (0‰), 90 µL was added to each well. […] Twofold serial dilutions were made with MHB (0‰). From each of the bacterial suspensions (0‰), 50 µL was added to each well. The same method was followed for testing peptides in MHB at 25‰. All peptide concentrations ranged from 0.125 to 65 µg mL^−1, and the bacterial suspension in each well was approximately 5 × 10^5 CFU mL^−1. […]

[9] = test system: Shewanella sp.; type: cell-based; conditions: 48 h; remark: listed apart in the source
Method in brief: (§4)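 MIC, twofold broth microdilution in polypropylene plates; peptides 0.125–65 µg mL^−1; ~5 × 10^5 CFU mL^−1; MHB at 0‰ or 25‰ salinity. Acetic acid/BSA diluent where peptides precipitated. Duplicates. T. discolor: 1 MHB:7 seawater (25‰) only.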

[10] = test system: Vibrio alginolyticus; type: cell-based; conditions: 48 h; remark: listed apart in the source
Method in brief: as §4

[11] = test system: Pseudoalteromonas sp.; type: cell-based; conditions: 48 h
Method in brief: as §4

[12] = test system: Tenacibaculum discolor; type: cell-based; conditions: 48 h
Method in brief: as §4

[13] = test system: Escherichia coli (ATCC 25922); type: cell-based; conditions: ATCC 25922, 48 h; remark: listed apart in the source
Method in brief: as §4

[14] = test system: Vibrio rotiferianus; type: cell-based; conditions: 48 h; remark: listed apart in the source
Method in brief: as §4

[15] = test system: Vibrio scophthalmi; type: cell-based; conditions: 48 h; remark: listed apart in the source
Method in brief: as §4

[16] = test system: Vibrio harveyi; type: cell-based; conditions: 48 h; remark: listed apart in the source
Method in brief: as §4

[17] = test system: Vibrio harveyi (ATCC 35084); type: cell-based; conditions: ATCC 35084, 48 h; remark: listed apart in the source
Method in brief: as §4

[18] = cited from earlier work
From the text: A study by Haney determined the aggregation properties of the innate defence regulator (IDR) peptides 1018, 1002 and HH2 in different media such as salts and serum. These IDR peptides are synthetic analogues to natural host defence peptides (HDPs) found in organisms. […] Second-generation peptides are synthetically rearranged IDRs that are created to combat unwa ...

Substance	MIC Shewanella sp., Acetic [1]	MIC Shewanella sp., No acetic [1]	MIC V. alginolyticus, Acetic [2]	MIC V. alginolyticus, No acetic [2]	MIC E. coli ATCC 25922, Acetic [3]	MIC E. coli ATCC 25922, No acetic [3]	MIC V. rotiferianus, Acetic [4]	MIC V. rotiferianus, No acetic [4]	MIC V. scophthalmi, Acetic [5]	MIC V. scophthalmi, No acetic [5]	MIC V. harveyi, Acetic [6]	MIC V. harveyi, No acetic [6]	MIC V. harveyi ATCC 35084, Acetic [7]	MIC V. harveyi ATCC 35084, No acetic [7]	MIC against the probiotic strains, low salt [8]	MIC Shewanella sp., salinity 0‰ [9]	MIC Shewanella sp., salinity 25‰ [9]	MIC V. alginolyticus, salinity 0‰ [10]	MIC V. alginolyticus, salinity 25‰ [10]	MIC Pseudoalteromonas sp., salinity 25‰ [11]	other results
KWRLLIRWRIQK [Peptide 2009]	0.25 µg/mL	1.02 µg/mL	1.02 µg/mL	1.02 µg/mL	2.03 µg/mL	2.03 µg/mL	0.13 µg/mL	1.02 µg/mL	0.13 µg/mL	0.51 µg/mL	1.02 µg/mL	1.02 µg/mL	1.02 µg/mL	1.02 µg/mL	0.13 to 0.25 µg/mL	0.51 µg/mL	> 65 µg/mL	1.02 µg/mL	65 µg/mL	> 65 µg/mL	MIC T. discolor, salinity 25‰ [12]: > 65 µg/mL; MIC E. coli ATCC 25922, salinity 0‰ [13]: 2.03 µg/mL; MIC E. coli ATCC 25922, salinity 25‰ [13]: > 65 µg/mL; MIC V. rotiferianus, salinity 0‰ [14]: 0.13 µg/mL; MIC V. rotiferianus, salinity 25‰ [14]: 32.5 µg/mL; MIC V. scophthalmi, salinity 0‰ [15]: < 0.13 µg/mL; MIC V. scophthalmi, salinity 25‰ [15]: 32.5 µg/mL; MIC V. harveyi, salinity 0‰ [16]: 1.02 µg/mL; MIC V. harveyi, salinity 25‰ [16]: > 65 µg/mL; MIC V. harveyi ATCC 35084, salinity 0‰ [17]: 1.02 µg/mL; MIC V. harveyi ATCC 35084, salinity 25‰ [17]: > 65 µg/mL; cytotoxicity [18]: caused cytotoxicity
RRWIVKVRIRRR-NH2 [Peptide 2008]	0.13 µg/mL	0.51 µg/mL	0.51 µg/mL	1.02 µg/mL	2.03 µg/mL	4.06 µg/mL	0.25 µg/mL	1.02 µg/mL	0.13 µg/mL	0.25 µg/mL	1.02 µg/mL	1.02 µg/mL	1.02 µg/mL	1.02 µg/mL	0.13 to 0.25 µg/mL	0.51 µg/mL	65 µg/mL	0.13 µg/mL	65 µg/mL	65 µg/mL	MIC T. discolor, salinity 25‰ [12]: > 65 µg/mL; MIC E. coli ATCC 25922, salinity 0‰ [13]: 4.06 µg/mL; MIC E. coli ATCC 25922, salinity 25‰ [13]: > 65 µg/mL; MIC V. rotiferianus, salinity 0‰ [14]: 0.25 µg/mL; MIC V. rotiferianus, salinity 25‰ [14]: 65 µg/mL; MIC V. scophthalmi, salinity 0‰ [15]: 0.25 µg/mL; MIC V. scophthalmi, salinity 25‰ [15]: 65 µg/mL; MIC V. harveyi, salinity 0‰ [16]: 1.02 µg/mL; MIC V. harveyi, salinity 25‰ [16]: > 65 µg/mL; MIC V. harveyi ATCC 35084, salinity 0‰ [17]: 1.02 µg/mL; MIC V. harveyi ATCC 35084, salinity 25‰ [17]: > 65 µg/mL; cytotoxicity [18]: caused cytotoxicity
